This passage reports EC50 results from paper PMC6522510 (Nature Communications, 2019).

Experiment [1] has as its system MOLM-13. Nature of the experiment: cells. Set-up: species or system AML cell lines (8); Secondary HTS, 10-point dose-response in triplicate, Cell Titer Glo viability, four-parameter fit EC50. The following applies: Homo sapiens, MOLM-13, 72 h, read-out: MOLM-13.
Experiment [2] deals with MV4-11. The experiment in a line: cells. Further details: species or system AML cell lines (8); Secondary HTS, 10-point dose-response in triplicate, Cell Titer Glo viability, four-parameter fit EC50. As to conditions: Homo sapiens, MV4-11, 72 h, read-out: MV4-11.
The test system of experiment [3] is MV4-11. The experiment in a line: Secondary dose-response HTS, Cell Titer Glo. As to conditions: Homo sapiens; secondary high-throughput screen; MV4-11; read-out: average effective concentration, MV4-11. The experiment is classed as cell-based, human. In general terms: ATP-based viability assays read luminescence as a measure of living cells.
In experiment [4] the test system is CHRF288-11. Nature of the experiment: cells. Set-up: species or system AML cell lines (8); Secondary HTS, 10-point dose-response in triplicate, Cell Titer Glo viability, four-parameter fit EC50. The following applies: 72 h, read-out: CHRF288-11.
The subject of experiment [5] is M07e. Nature of the experiment: cells. Set-up: species or system AML cell lines (8); Secondary HTS, 10-point dose-response in triplicate, Cell Titer Glo viability, four-parameter fit EC50. As to conditions: M-07e, 72 h, read-out: M07e.
Experiment [6] has as its system MOLM-13. Nature of the experiment: Secondary dose-response HTS, Cell Titer Glo. The following applies: Homo sapiens; secondary high-throughput screen; MOLM-13; read-out: average effective concentration, MOLM-13. The experiment is classed as cell-based, human.
For experiment [7], the system named is U937. Nature of the experiment: cells. Further details: species or system AML cell lines (8); Secondary HTS, 10-point dose-response in triplicate, Cell Titer Glo viability, four-parameter fit EC50. The following applies: Homo sapiens, U-937, 72 h, read-out: U937.
Experiment [8] concerns ML2. The experiment in a line: Secondary dose-response HTS, Cell Titer Glo. The experiment is classed as cell-based, human. The following applies: Homo sapiens; secondary high-throughput screen; ML-2; read-out: average effective concentration, ML-2.
Experiment [9] deals with CMK. The experiment in a line: Secondary dose-response HTS, Cell Titer Glo. The experiment is classed as cell-based, human. The following applies: Homo sapiens, CMK, read-out: average effective concentration, CMK.
The test system of experiment [10] is CMS. The experiment in a line: cells. Set-up: species or system AML cell lines (8); Secondary HTS, 10-point dose-response in triplicate, Cell Titer Glo viability, four-parameter fit EC50. The following applies: 72 h, read-out: CMS.
Experiment [11] has as its system CMK. Nature of the experiment: cells. Set-up: species or system AML cell lines (8); Secondary HTS, 10-point dose-response in triplicate, Cell Titer Glo viability, four-parameter fit EC50. As to conditions: Homo sapiens, CMK, 72 h, read-out: CMK.
In experiment [12] the test system is U937. Nature of the experiment: Secondary dose-response HTS, Cell Titer Glo. The experiment is classed as cell-based, human. As to conditions: Homo sapiens, U-937; secondary high-throughput screen; U937; read-out: average effective concentration, U937.
For experiment [13], the system named is CHRF288-11. The experiment in a line: Secondary dose-response HTS, Cell Titer Glo. The experiment is classed as cell-based, human. As to conditions: Homo sapiens, HTS; secondary high-throughput screen; CHRF288-11; read-out: average effective concentration, CHRF288-11.
Where [14] appears, read: secondary high-throughput screen.

Regarding `O=C(CCCCCN1C(=O)c2cccc3cccc(c23)C1=O)NO`, the EC50 in [1] and in experiment [2] was over 10 µM in each case.
Regarding `COc1cc(N2CCC(N3CCN(C)CC3)CC2)ccc1Nc1ncnc(Nc2ccccc2S(=O)(=O)C(C)C)n1` [ASP3026], the EC50 was over 10 µM in experiment [3]; over 10 µM in experiment [4]; over 10 µM in experiment [5]; 8 µM in experiment [6]; over 10 µM in experiment [7]; over 10 µM in experiment [8]. In addition, the values for the EC50 in [9] (setting [14]) and in experiment [10] were 9.5 µM and over 10 µM, respectively.
Consider `C[C@H]1[C@H](OC(=O)CCC(=O)O)O[C@@H]2O[C@@]3(C)CC[C@H]4[C@H](C)CC[C@@H]1[C@@]24OO3` [Artesunate], for which the EC50 in experiment [2] and in experiment [11] was over 10 µM in each case.
Consider `C[C@@]1(C(=O)Nc2ccc(F)nc2)CCCN1c1nc(Nc2cc(C3CC3)n[nH]2)c2cccn2n1` [BMS-754807], for which the EC50 in [3] was 10 µM; in [4], over 10 µM; in experiment [5], over 10 µM; in experiment [6], 8.4 µM; in [7], over 10 µM; in [8] it was 2 µM. The values for the EC50 in [9] (setting [14]) and in experiment [10] were 2 µM and over 10 µM, respectively.
Regarding `CO[C@@H](C(=O)N1Cc2n[nH]c(NC(=O)c3ccc(N4CCN(C)CC4)cc3)c2C1)c1ccccc1` [DANUSERTIB], the EC50 in [3] is 0.48 µM; in experiment [12], 3.8 µM; in experiment [4], over 10 µM; in experiment [5], over 10 µM; in [6] it was 1.4 µM; in experiment [8] it was 0.61 µM. Also, the EC50 in [9] and in experiment [10] was over 10 µM each time.
With `O=c1oc2c(O)c(O)cc3c(=O)oc4c(O)c(O)cc1c4c23` [ELLAGIC ACID], the EC50 in [2] was over 10 µM; in experiment [4], over 10 µM; in [5] it was over 10 µM; in [6] it was 0.8 µM; in experiment [7], over 10 µM; in experiment [8], 0.51 µM. For the same molecule, the EC50 in experiment [10] and in experiment [11] was over 10 µM each time.
For `CN1c2ccccc2C(=O)N2CCc3c([nH]c4ccccc34)[C@H]21` [EVODIAMINE], the EC50 in experiment [1], in experiment [2] and in experiment [4] was over 10 µM in each case.
As for `CN[C@@H](C)C(=O)N[C@H](C(=O)N1CCC[C@H]1c1nc(C(=O)c2ccc(F)cc2)cs1)C1CCCCC1` [LCL-161], the EC50 in [2] is over 10 µM; in [5], over 10 µM; in experiment [6] it was over 10 µM; in experiment [13] it was 8.5 µM; in experiment [7], over 10 µM; in experiment [8], 5 µM. For the same molecule, the EC50 in experiment [10] and in experiment [11] was over 10 µM throughout.
With `CCN1CCN(Cc2ccc(Nc3ncc(F)c(-c4cc(F)c5nc(C)n(C(C)C)c5c4)n3)nc2)CC1` [LY2835219], the EC50 in [3] was 1.9 µM; in experiment [12] it was 2 µM; in [4], over 10 µM; in experiment [5], over 10 µM; in experiment [6] it was 1.9 µM; in experiment [8], 4 µM. Besides, the EC50 in [10] and in experiment [11] was over 10 µM in each case.
In the case of `CN(Cc1cnc2nc(N)nc(N)c2n1)c1ccc(C(=O)N[C@@H](CCC(=O)O)C(=O)O)cc1` [METHOTREXATE], the EC50 is over 10 µM in experiment [2]; over 10 µM in experiment [5]; over 10 µM in experiment [6]; 0.001 µM in experiment [13]; over 10 µM in experiment [7]; 0.001 µM in [8]. Also, the EC50 in experiment [9] (setting [14]) was 0.0045 µM; in [10], over 10 µM.
For the molecule `COc1ccc(-c2ccc3ncc4c(c3c2)n(-c2ccc(N3CCNCC3)c(C(F)(F)F)c2)c(=O)n4C)cn1` [NVP-BGT226], in [1], the EC50 turned out to be 0.115 µM.
As to `O=C(NOC[C@H](O)CO)c1ccc(F)c(F)c1Nc1ccc(I)cc1F` [PD-0325901], the EC50 is over 10 µM in experiment [2]; over 10 µM in experiment [5]; 0.92 µM in experiment [6]; over 10 µM in experiment [13]; over 10 µM in experiment [7]; 0.001 µM in experiment [8]. For the same molecule, the EC50 in experiment [10] and in experiment [11] was over 10 µM each time.
With `Nc1nc2[nH]cc(CCc3ccc(C(=O)N[C@@H](CCC(=O)O)C(=O)O)cc3)c2c(=O)[nH]1` [PEMETREXED], the EC50 in [3] was 0.035 µM; in experiment [5], over 10 µM; in [6], 0.048 µM; in experiment [13], 0.1 µM; in [7], over 10 µM; in experiment [8], 0.066 µM. Also, the EC50 in [10] and in [11] was over 10 µM in each case.
Turning to `O=C(O)C[C@H](O)C[C@H](O)/C=C/c1c(C2CC2)nc2ccccc2c1-c1ccc(F)cc1` [PITAVASTATIN], the EC50 was 7.6 µM in [3]; 8.5 µM in experiment [12]; over 10 µM in [5]; 5.3 µM in [6]; 2.2 µM in experiment [13]; 5.1 µM in [8]. Moreover, the EC50 in experiment [10] and in [11] was over 10 µM in each case.
On to `Cc1[nH]c2ccccc2c1CCNCc1ccc(/C=C/C(=O)NO)cc1` [Panobinostat], for which the EC50 in [7] amounted to 0.0124 µM.
`O=C(NC[C@H](O)CO)c1ccncc1Nc1ccc(I)cc1F` [Pimasertib]: the EC50 in experiment [3] was 6.3 µM; in [1], over 10 µM; in experiment [4], over 10 µM; in experiment [5], over 10 µM; in experiment [7], over 10 µM; in [8], 0.001 µM. Besides, the EC50 in experiment [9] (setting [14]) and in experiment [10] was over 10 µM in each case.
For the molecule `Cc1nc2ccc(CN(C)c3ccc(C(=O)N[C@@H](CCC(=O)O)C(=O)O)s3)cc2c(=O)[nH]1` [RALTITREXED], the EC50 in experiment [3] was 0.027 µM; in experiment [5] it was over 10 µM; in experiment [6] it was 0.068 µM; in [13], 0.095 µM; in experiment [7] it was over 10 µM; in [8], 0.1 µM. The EC50 in [10] and in experiment [11] was over 10 µM each time.
Consider `CCOc1cc(C(C)(C)C)ccc1C1=N[C@@](C)(c2ccc(Cl)cc2)[C@@](C)(c2ccc(Cl)cc2)N1C(=O)N1CCN(CCCS(C)(=O)=O)CC1` [RG7112], for which the EC50 in experiment [4], in [7], in [10] and in experiment [11] was over 10 µM throughout.
As for `CCC(C)(C)C(=O)O[C@H]1C[C@@H](C)C=C2C=C[C@H](C)[C@H](CC[C@@H]3C[C@@H](O)CC(=O)O3)[C@H]21` [SIMVASTATIN], the EC50 in experiment [2] was over 10 µM; in experiment [5] it was over 10 µM; in experiment [6], over 10 µM; in experiment [13] it was 4.1 µM; in experiment [7] it was over 10 µM; in experiment [8], over 10 µM. The EC50 in [10] and in experiment [11] was over 10 µM in each case.
`CNC(=O)c1cc(Oc2ccc(NC(=O)Nc3ccc(Cl)c(C(F)(F)F)c3)cc2)ccn1` [Sorafenib]: the EC50 in experiment [2] is 0.0073 µM; in experiment [4] it was over 10 µM; in [5], over 10 µM; in [10], over 10 µM; in experiment [11], over 10 µM.
Consider `COc1ccc(C[C@@H](C)[C@@H](C)Cc2ccc(OC)c(OC)c2)cc1OC` [TERAMEPROCOL], for which the EC50 in experiment [12], in experiment [2], in experiment [4], in [5], in experiment [6] and in [8] was over 10 µM throughout. For the same molecule, the EC50 in experiment [10] and in experiment [11] was over 10 µM each time.
For the molecule `CC[C@@H]1C(=O)N(C)c2cnc(Nc3ccc(C(=O)N[C@H]4CC[C@H](N5CCN(CC6CC6)CC5)CC4)cc3OC)nc2N1C(C)C` [Volasertib], the EC50 in experiment [1] was 0.0077 µM; in experiment [5], over 10 µM.
Regarding `O=c1ncccn1[C@@H]1O[C@H](CO)[C@@H](O)[C@H]1O` [ZEBULARINE], the EC50 was over 10 µM in [2]; over 10 µM in experiment [5]; 1.1 µM in experiment [6]; 8.9 µM in experiment [13]; over 10 µM in experiment [7]; 0.73 µM in experiment [8]. The EC50 in experiment [10] and in experiment [11] was over 10 µM throughout.
